# According to US10947260B2, “Phosphinolactone derivatives and pharmaceutical uses thereof” (INSTITUT NATIONAL DE LA SANTE ET DE LA RECHERCHE MEDICALE …, priority 2016, dated 2021):
# Assays:
# mice = assay: Forced swim test; type: in vivo
# Procedure: FIG. 13: Assays of compound 3b as positive modulator of the sigma-1 protein. […] Male Swiss mice aged 7 weeks (n=10-12 per group) were forced to swim for 15 min on Day 1 and 6 min on Day 2. They were given NE-100 (10 mg/kg ip), 10 min before compound 3b (10 mg/kg ip) and 20 min before the session of Day 2. Immobility was measured over the last 5 minutes of the session. The vehicle solution was distilled water. F(3.42)=4.45, p<0.01; **p<0.01 vs. group V/V, ##p<0.01 vs. group V/3b, Dunnet test. […] Wild-type mice (Wt, n=14-15) and S1R KO mice (n=9-10) were forced to swim 15 min on Day 1 and 6 min on Day 2. They were given compound 3b (10 mg/kg ip) 20 min before the session on Day 2. Immobility was measured during the last 5 minutes of the session. The vehicle solution was distilled water. F(3.49)=6.64, p<0.001; **p<0.01 vs. group Wt/V, Dunnett test. […] Male Swiss mice aged 7 weeks (n=8-23 per group) were forced to swim for 15 min on Day 1 and 6 min on Day 2. They were given igmesine (10, 30 mg/kg ip) and/or compound 3b (10 mg/kg ip) 20 min before the session on Day 2. NE-100 (10 mg/kg ip) was injected 10 min before igmesine and compound 3b. Immobility was measured during the last 5 minutes of the session. The vehicle solution was distilled water. F(6.90)=5.59, p<0.0001; ***p<0.001 vs. group V, ##p<0.01 vs. group V/Igmesine (10)+3B (5), Dunnett test.
# [1] = tested on: mice treated with Aβ25-35; conditions: IP; Aβ25-35 model; cited from earlier work
# [2] = tested on: mice treated with scopolamine; assay: Spontaneous alternation in Y-maze, scopolamine amnesia model; type: in vivo
# Procedure: (§1) FIG. 5: Anti-amnesic effect of compound 3b in mice treated with scopolamine: (a, b) spontaneous alternation in Y-maze, and (c, d) passive avoidance. The mice were given compound 3b (0.03-1.5 mg/kg IP) 10 min before scopolamine (0.5 mg/kg SC), 20 min before the Y-maze session or passive avoidance training. Y-maze test: (a) spontaneous alternation and (b) total number of arm entries; retention of passive avoidance: (c) step-through latency and (d) escape latency. ANOVA: F(6.94)=5.32, p<0.0001 at (a); F(6.94)=10.6, p<0.0001 at (b); H=31.4, p<0.0001 at (c); H=24.3, p<0.001 at (d); n=12-19 per group. *p<0.05, **p<0.01, ***p<0.001 compared with group (Sc.Aβ+V); #p<0.05, ##p<0.01, ###p<0.001 compared with group (Aβ25-35+V); Dunnett test at (a, b) and Dunn at (c, d).
# FIG. 6: Analysis of the antagonism of anti-amnesic effects of compound 3b in mice treated with scopolamine: (a, c, e) spontaneous alternation in Y-maze, and (b, d, f) step-through latency at recall session of passive avoidance. The mice were treated with methyllycaconitine (MLA, 1 or 3 mg/kg IP), dihydro-ß-erythroidine (DHßE, 1 or 3 mg/kg IP), or NE100 (1 mg/kg IP), simultaneously with compound 3b (0.1 mg/kg IP) 10 min before scopolamine (S, 0.5 mg/kg SC), 20 min before behavioural session. ANOVA: F(5.87)=7.19, p<0.0001 at (a); H=31.3, p<0.0001 at (b); F(5.82)=5.82, p<0.0001 at (c); H=28.8, p<0.0001 at (d); F(4.77)=10.0, p<0.0001 at (e); H=30.5, p<0.0001 at (f); n=12-17 per group. *p<0.05, **p<0.01, ***p<0.001 compared with group (Sc.Aβ+V); #p<0.05, ##p<0.01, ###p<0.001 compared with group (Aβ25-35+V); Dunnett test at (a, b) and Dunn at (c, d).
# The animals were tested for spontaneous alternation performance in a Y-maze, an index of spatial working memory. The Y-maze was in grey PVC. Each arm was 40 cm long, 13 cm high, 3 cm wide at the base and 10 cm wide in the upper part, and converging at an equal angle. Each mouse was placed at one end of an arm and was able to move freely through the maze during an 8-min session. The series of arm entries, including any returns in the same arm were visually analysed. Alternation is defined as being consecutive entries in three different arms. The maximum number of alternations is therefore the total number of arm entries less two, and alternation percentage is calculated as (actual alternations/maximum possible alternations)×100. […]
# (§2) Finally, a first mechanistic analysis of the pharmacological effect in vivo of compound 3b was carried out. With the objective of confirming that the compound, neuroprotective against amyloid toxicity, could also be anti-amnesic in a pharmacological amnesia model, we first determined its effectiveness against the amnesic effects of scopolamine. […]
# [3] = tested on: mice treated with scopolamine; assay: Passive avoidance, scopolamine amnesia model; type: in vivo
# Procedure: as §1
# FIG. 6: Analysis of the antagonism of anti-amnesic effects of compound 3b in mice treated with scopolamine: (a, c, e) spontaneous alternation in Y-maze, and (b, d, f) step-through latency at recall session of passive avoidance. The mice were treated with methyllycaconitine (MLA, 1 or 3 mg/kg IP), dihydro-ß-erythroidine (DHßE, 1 or 3 mg/kg IP), or NE100 (1 mg/kg IP), simultaneously with compound 3b (0.1 mg/kg IP) 10 min before scopolamine (S, 0.5 mg/kg SC), 20 min before behavioural session. […]
# The apparatus contained two compartments (15×20×15 cm in height) with one light part having walls in white PVC and the other dark with walls in black PVC and a grid floor. […] Step-through latency (STL) i.e. the time taken to enter the dark compartment and the number of cries, were recorded. […] Step-through latency was recorded up to 300 s.
# as §2
# [4] = tested on: mice treated with peptide Aβ25-35; assay: In vivo screening of derivatives as neuroprotectors (spontaneous alternation, passive avoidance, ROS level), Aβ25-35 model; conditions: 0.3 mg/kg IP
# Procedure: FIG. 7: Screening of phosphinolactones as neuroprotectors in mice treated with peptide Aβ25-35: (a) spontaneous alternation; (b) passive avoidance step-through latency; (c) Levels of reactive oxygen species in hippocampus. The mice were given compound 3b (0.3, 0.7 mg/kg IP) or a dose of each compound (0.3 mg/kg IP) 20 min before I′Aβ25-35 or the control peptide Sc.Aβ (9 nmol ICV). The animals were tested in the Y-maze on Day 7 after the ICV injections and for passive avoidance on Days 8-9, and then sacrificed. In each graph at (a-c), the 50% protection level compared with the deficit induced by Aβ25-35 is plotted as a dotted line. It is to be noted that at (a), the column represents the median and the error bars represent the deviations 25%-75% (=asymmetric deviations). n=12 at (a, b) and 5-6 at (c). ANOVA on groups 1-4: F(3.63)=7.95, p<0.001 at (b); H=24.1, p<0.0001 at (c); F(3.44)=6.33, p<0.01 at (d). *p<0.05, **p<0.01, ***p<0.001 compared with group (Sc.Aβ+V); #p<0.05, ##p<0.01, ###p<0.001 compared with group (Aβ25-35+V); Dunnett test at (a, c) and Dunn at (b). The values of the groups 5-12 (screened compounds) were analysed by t-test at (a, c) or Mann-Whitney at (b).
# From the molecules derived from the synthesis, a panel of 8 derivatives was selected and screened for potential neuroprotective efficacy. The compounds were injected at a dose of 0.3 mg/kg IP, i.e. the maximum non-active dose of 3b and compared with 3b injected at 0.3 and 0.7 mg/kg IP. The compounds were injected […] before the Aß25-35 peptide, and the mice were tested for spontaneous alternation on Day 7, passive avoidance on Days 8 and 9 and the ROS level was measured in the hippocampus (FIG. 7). For each response (spontaneous alternation: FIG. 7a; step-through latency in passive avoidance: FIG. 7b, and DCF fluorescence level: FIG. 7c), a 50% level of the effect between the values of the ScAß and Aß25-35 animals was taken as criterion of efficacy. […] Compound 3c is an isomer at the position of the chlorine atom of 3b. Regarding compound 3n, this has a 5-pyrimidyl group attached to the phosphorus atom, and for compound 3l it is a 4-pyridinyl group.
# [5] = antagonist 1 mg/kg IP with 3b 0.1 mg/kg IP
# [6] = antagonist at the two doses tested (1 or 3 mg/kg IP) with 3b 0.1 mg/kg IP
smiles,measurement,setting,value
CCC(C/C=C/c1ccccc1)(c1ccccc1)N(C)CC1CC1 (centres unmarked) [igmesine],activity in forced swim test,mice; 10 mg/kg,not active
CC12CC3CC(C)(C1)CC(N)(C3)C2 [memantine],active dose of reference molecules in this model,[1],1 mg/kg
"CCN1C[C@]2(COC(=O)c3ccccc3N3C(=O)C[C@H](C)C3=O)CC[C@H](OC)[C@@]34[C@@H]5C[C@H]6[C@H](OC)[C@@H]5[C@](O)(C[C@@H]6OC)[C@@](O)([C@@H](OC)[C@H]23)[C@@H]14 [MLA, methyllycaconitine]","antagonism of the anti-amnesic effect of compound 3b, spontaneous alternation",[2]; antagonist 3 mg/kg IP with 3b 0.1 mg/kg IP,blocked the anti-amnesic effect of compound 3b
same,"antagonism of the anti-amnesic effect of compound 3b, passive avoidance",[3]; [5],attenuated the effect
"CC1(C)COP(=O)(c2ccncc2)C(C)(C)N1 (racemic) [Compound 3l, (±)-2-(Pyridin-4-yl)-2-oxo-3,3,5,5-tetramethyl-[1,4,2]-oxazaphosphinane]","criterion of efficacy: 50% level of the effect between ScAβ and Aβ25-35 animals (spontaneous alternation, step-through latency, DCF fluorescence)",[4],met the criterion for the 3 parameters
CCCN(CCC)CCc1ccc(OC)c(OCCc2ccccc2)c1 [NE100],blockade of the antidepressant effect of compound 3b,"mice; NE-100 10 mg/kg ip, 10 min before 3b 10 mg/kg ip",blocked
same,"antagonism of the anti-amnesic effect of compound 3b, spontaneous alternation",[2]; [5],blocked the effect of compound 3b
same,"antagonism of the anti-amnesic effect of compound 3b, passive avoidance",[3]; [5],attenuated the effect
"CO[C@H]1CC=C2CCN3CCC4=C(CC(=O)OC4)[C@]23C1 [DhßE, dihydro-β-erythroidine]","antagonism of the anti-amnesic effect of compound 3b, spontaneous alternation",[2]; [6],ineffective
same,"antagonism of the anti-amnesic effect of compound 3b, passive avoidance",[3]; [6],ineffective
"CC1(C)COP(=O)(c2cncnc2)C(C)(C)N1 (racemic) [Compound 3n, (±)-2-(Pyrimidin-5-yl)-2-oxo-3,3,5,5-tetramethyl-[1,4,2]-oxazaphosphinane]","criterion of efficacy: 50% level of the effect between ScAβ and Aβ25-35 animals (spontaneous alternation, step-through latency, DCF fluorescence)",[4],met the criterion for the 3 parameters
